No end group written: not given here.
What was measured:
[1] = test system: filtration surgery in rabbits; experiment: Rabbit model of glaucoma filtration surgery failure; type: in vivo; parameters: IOP: unit not given here
Protocol: The rabbit model for filtration surgery is described by Bergstrom TJ, and Skuta GL. et al. in Arch. Ophthalmol, 109(12):1725-30, 1991. Two New Zealand white albino rabbits were used in the study. All animals were treated according to ARVO Animal Use Guidelines. All eyes were examined prior to initiation of a study and only clinically normal animals were used.
All the rabbits underwent preoperative examination and the intraocular pressure (IOP) was measured by pneumatonometry (PneumaTonometer, Digilab Model 30R, Cambridge, Mass.). The rabbits were anesthetized using an intramuscular injection of a mix of ketamine (30 mg/kg) and xylazine (5 mg/kg). A posterior lip sclerectomy was then performed on both eyes of each animal during the same period of anesthesia. […] The superotemporal conjuctiva and Tenon's capsule was incised near the fornix, and the dissection was performed anteriorly to the limbus. The anterior chamber was entered at the filtration site and a 1-mm by 3-mm block of limbal scleral tissue was excised from the posterior lip of the wound with the Kelly-Descemet punch. A peripheral iridectomy was then performed with Vannas scissors and curved jeweler's forceps. Hand-held thermal cautery was used as needed to provide hemostasis. The conjunctiva was closed with a running 10-0 nylon suture. The right eye received subconjunctival injection of the Hep-II dissolved in 0.15 ml distilled water at the end of the filtration surgery and the left eye, which served as the control, received an equal volume of distilled water. These and each of the subsequent injections were made into the area of the bleb. No prophylactic antibiotics, cycloplegic, or corticosteroid was applied to either eye intraoperatively or postoperatively. Postoperative evaluation included examination with a portable slit-lamp biomicroscope, evaluation of the filtering bleb and intraocular pressure measurements obtained with a pneumatonometer. At the end of the study the animals were sacrificed while under anesthesia with an intravenous injection of 1 cc of euthanasia solution.
The results of filtration surgery were evaluated by monitoring intraocular pressures and visual inspection of scarring and vascularization. The ability of ability of a synthetic polypeptide to prolong the effect of glaucoma treatment by filtration surgery was examined using the rabbit model. The right eye was treated with subconjunctival injection of 1 milligram of Hep-II dissolved in 0.15 ml of distilled water at the end of filtration surgery and every other day for a total of eight injections. The left eye served as the control and received an equal volume of distilled water on those days. The intraocular pressures (IOP) were checked using a pneumatonometer every day until day 9 and roughly every other day until day 28 (Table V and FIG. 27). […] Control eyes reached pre-operative pressures between about day 4 and day 9.

[2] = test system: rabbit dermal fibroblasts; experiment: Fibroblast-mediated collagen gel contraction (shrinkage) assay; type: cell-based
Description: As indicated above, proliferative vitreoretinopathy is the result of the proliferation and migration of fibroblasts, retinal pigment epithelial cells, and glial cells, and their organization into vitreous strands and epiretinal membranes. The vitreous strands and epiretinal membranes can contract, resulting in traction retinal detachment. The ability of rabbit dermal fibroblasts to cause contraction was examined in the collagen gel shrinkage model, which serves as an in vitro model of proliferative vitreoretinopathy (see Verdoon et al., Arch. Ophthalmol., 104, 1216-1219 (1986)). The ability of synthetic polypeptides derived from ECM molecules to inhibit contraction in the collagen gel shrinkage model using rabbit fibroblasts was also examined.
Fifty thousand rabbit dermal fibroblasts were suspended in 250 μl of fibroblast assay medium and mixed with 250 μl of Vitrogen and dispensed into the wells of a 48-well plate. The cells were preincubated with the desired polypeptide concentration (25, 50, 100, or 200 ug/ml) for one hour at 37° C. before mixing with the Vitrogen. Gelling occurred within 20 minutes after transfer of the mix of cell suspension and Vitrogen into an incubator at 37° C. with 5% CO2. The gels were overlaid with 250 μl of growth medium. All conditions were tested in duplicate wells. After 24 hours, the gels were detached from the sides of the wells by sweeping with a 27-gauge needle inserted at the interface between the plastic well and the gel (FIGS. 6-8).
Contraction of collagen gels was quantitated by use of planimetry. The gels were observed daily over the seven day period following detachment for evidence of contraction. The plates were photographed at the end of the seven days to record the amount of contraction. The contraction was measured by recording the area of each gel in each well off the photograph using a computer scanner. The area of the gels with polypeptide was compared to the area of the gels without the polypeptide. Planimetry is a two-dimensional measurement. […] The planimetry measurements accordingly underestimate the degree of contraction that actually occurred.
The collagen gels were cast with or without the incorporation of 25 ug/ml of fibronectin. […] These controls using deactivated cells indicate that cell growth and proliferation are required to effect gel shrinkage.

LAGSCLARFSTM [Hep-II, Leu-Ala-Gly-Ser-Cys-Leu-Ala-Arg-Phe-Ser-Thr-Met]
IOP in treated eyes versus control eyes ([1]; 1 milligram subconjunctival every other day, eight injections, 28 days, p<0.001): lower than the control eyes
IOP ([1]; Rabbit #3 OD (1 milligram Hep-II subconjunctival, eight injections), Post op #1, Pre op 32, control OS 22): 24
IOP ([1]; Rabbit #3 OD (1 milligram Hep-II subconjunctival, eight injections), Post op #2, Pre op 32, control OS 31): 30
IOP ([1]; Rabbit #3 OD (1 milligram Hep-II subconjunctival, eight injections), Post op #3, Pre op 32, control OS 30): 25
IOP ([1]; Rabbit #3 OD (1 milligram Hep-II subconjunctival, eight injections), Post op #4, Pre op 32, control OS 32): 23
IOP ([1]; Rabbit #3 OD (1 milligram Hep-II subconjunctival, eight injections), Post op #5, Pre op 32, control OS 32): 22
IOP ([1]; Rabbit #3 OD (1 milligram Hep-II subconjunctival, eight injections), Post op #6, Pre op 32, control OS 32): 21
IOP ([1]; Rabbit #3 OD (1 milligram Hep-II subconjunctival, eight injections), Post op #7, Pre op 32, control OS 30): 21
IOP ([1]; Rabbit #3 OD (1 milligram Hep-II subconjunctival, eight injections), Post op #8, Pre op 32, control OS 31): 24
IOP ([1]; Rabbit #3 OD (1 milligram Hep-II subconjunctival, eight injections), Post op #9, Pre op 32, control OS 30): 22
IOP ([1]; Rabbit #3 OD (1 milligram Hep-II subconjunctival, eight injections), Post op #13, Pre op 32, control OS 30): 24
IOP ([1]; Rabbit #3 OD (1 milligram Hep-II subconjunctival, eight injections), Post op #14, Pre op 32, control OS 28): 18
IOP ([1]; Rabbit #3 OD (1 milligram Hep-II subconjunctival, eight injections), Post op #15, Pre op 32, control OS 33): 25
IOP ([1]; Rabbit #3 OD (1 milligram Hep-II subconjunctival, eight injections), Post op #16, Pre op 32, control OS 35): 27
IOP ([1]; Rabbit #3 OD (1 milligram Hep-II subconjunctival, eight injections), Post op #18, Pre op 32, control OS 34): 26
IOP ([1]; Rabbit #3 OD (1 milligram Hep-II subconjunctival, eight injections), Post op #20, Pre op 32, control OS 32): 25
IOP ([1]; Rabbit #3 OD (1 milligram Hep-II subconjunctival, eight injections), Post op #21, Pre op 32, control OS 32): 28
IOP ([1]; Rabbit #3 OD (1 milligram Hep-II subconjunctival, eight injections), Post op #24, Pre op 32, control OS 32): 26
IOP ([1]; Rabbit #3 OD (1 milligram Hep-II subconjunctival, eight injections), Post op #27, Pre op 32, control OS 34): 33
IOP ([1]; Rabbit #3 OD (1 milligram Hep-II subconjunctival, eight injections), Post op #28, Pre op 32, control OS 35): 33
IOP ([1]; Rabbit #4 OD (1 milligram Hep-II subconjunctival, eight injections), Post op #1, Pre op 34, control OS 25): 24
IOP ([1]; Rabbit #4 OD (1 milligram Hep-II subconjunctival, eight injections), Post op #2, Pre op 34, control OS 25): 30
IOP ([1]; Rabbit #4 OD (1 milligram Hep-II subconjunctival, eight injections), Post op #3, Pre op 34, control OS 20): 22
IOP ([1]; Rabbit #4 OD (1 milligram Hep-II subconjunctival, eight injections), Post op #4, Pre op 34, control OS 25): 22
IOP ([1]; Rabbit #4 OD (1 milligram Hep-II subconjunctival, eight injections), Post op #5, Pre op 34, control OS 30): 24
IOP ([1]; Rabbit #4 OD (1 milligram Hep-II subconjunctival, eight injections), Post op #6, Pre op 34, control OS 31): 23
IOP ([1]; Rabbit #4 OD (1 milligram Hep-II subconjunctival, eight injections), Post op #7, Pre op 34, control OS 30): 23
IOP ([1]; Rabbit #4 OD (1 milligram Hep-II subconjunctival, eight injections), Post op #8, Pre op 34, control OS 32): 25
IOP ([1]; Rabbit #4 OD (1 milligram Hep-II subconjunctival, eight injections), Post op #9, Pre op 34, control OS 37): 26
IOP ([1]; Rabbit #4 OD (1 milligram Hep-II subconjunctival, eight injections), Post op #13, Pre op 34, control OS 32): 27
IOP ([1]; Rabbit #4 OD (1 milligram Hep-II subconjunctival, eight injections), Post op #14, Pre op 34, control OS 27): 20
IOP ([1]; Rabbit #4 OD (1 milligram Hep-II subconjunctival, eight injections), Post op #15, Pre op 34, control OS 35): 25
IOP ([1]; Rabbit #4 OD (1 milligram Hep-II subconjunctival, eight injections), Post op #16, Pre op 34, control OS 37): 28
IOP ([1]; Rabbit #4 OD (1 milligram Hep-II subconjunctival, eight injections), Post op #18, Pre op 34, control OS 35): 27
IOP ([1]; Rabbit #4 OD (1 milligram Hep-II subconjunctival, eight injections), Post op #20, Pre op 34, control OS 34): 27
IOP ([1]; Rabbit #4 OD (1 milligram Hep-II subconjunctival, eight injections), Post op #21, Pre op 34, control OS 40): 32
IOP ([1]; Rabbit #4 OD (1 milligram Hep-II subconjunctival, eight injections), Post op #24, Pre op 34, control OS 34): 28
IOP ([1]; Rabbit #4 OD (1 milligram Hep-II subconjunctival, eight injections), Post op #27, Pre op 34, control OS 36): 33
IOP ([1]; Rabbit #4 OD (1 milligram Hep-II subconjunctival, eight injections), Post op #28, Pre op 34, control OS 36): 35
Effect on duration of filtration surgery effect ([1]; rabbits in vivo): prolongs the effect of filtration surgery
Day until which blebs remained avascular (appeared functional) ([1]; treated eyes, control eyes until day 10): 18 days
% Contraction ([2]; 200 ug type IV collagen peptide, cells preincubated 1 hr, gel surface area by planimetry at day 7, no peptide 36%): 3%
Effect on fibroblast-mediated collagen gel contraction ([2]; gels cast with and without fibronectin): most potent inhibitory effects on contraction

Source: patent publication US6013628A, “Method for treating conditions of the eye using polypeptides” (Regents of the University of Minnesota, priority 1995, dated 2000)
